According to patent publication US20100129434A1, “COMPOSITIONS AND METHODS FOR THE TREATMENT OF MUCORMYCOSIS AND OTHER FUNGAL DISEASES” (priority 2006, published 2010):
In brackets after ≈: the same amount, converted by molar mass. Like-named read-outs stand apart in the source and are kept apart here.

Tested on: R. oryzae
Test: Deferasirox susceptibility testing (MIC/MFC), R. oryzae isolates
Assay type: cell-based, Rhizopus oryzae
Details: Rhizopus arrhizus; for MIC90: R. oryzae MIC90/MFC90
Description: Minimum inhibitory concentration (MIC) and minimum fungicidal concentration (MFC) were determined for deferasirox by the method of Espinel-Ingroff using R. oryzae spores starved for iron (Espinel-Ingroff, (2001), supra). Cidality was defined as a <4-fold difference between MIC and MFC.
We next determined the deferasirox susceptibilities of multiple clinical isolates of Mucorales (Table 3). The MIC9OS of deferasirox against Mucor, non-oryzae Rhizopus spp., and R. oryzae were 3.12 to 6.25 μg/ml. MFCs were similar to MICs, and deferasirox was cidal for 28/29 (97%) of isolates. Of note, slight growth was seen within the first twelve hours even at extremely high concentrations of deferasirox. […] Furthermore, the MICs and MFCs of deferasirox against these isolates were well below clinically achievable peak (˜38 μg/ml) and trough serum levels (˜17 μg/ml) of the drug at steady state when administered at the FDA-approved starting dose (20 mg/kg/d).

[1] = NRRL6059, 24 h, R. oryzae type I NRRL 6059, 24 h
[2] = NRRL6059, 48 h, R. oryzae type I NRRL 6059, 48 h
[3] = NRRL21409, 48 h, R. oryzae type I NRRL21409, 48 h

## O=C(O)c1ccc(-n2nc(-c3ccccc3O)nc2-c2ccccc2O)cc1 [Deferasirox, 4-[3,5-Bis(2-hydroxyphenyl)-1H-1,2,4-triazol-1-yl]-benzoic acid]
48 h, R. oryzae 729-02, 48 h, read-out: MFC
  MFC: 6.25 µg/mL (≈ 16.7 µM)
48 h, R. oryzae 729-02, 48 h, read-out: MIC
  MIC: 6.25 µg/mL (≈ 16.7 µM)
48 h, R. oryzae HUMC 02, 48 h, read-out: MFC
  MFC: 1.56 µg/mL (≈ 4.18 µM)
48 h, R. oryzae HUMC 02, 48 h, read-out: MIC
  MIC: 1.56 µg/mL (≈ 4.18 µM)
48 h, R. oryzae pyr17 pyrG−/−, 48 h, read-out: MFC
  MFC: 0.78 µg/mL (≈ 2.09 µM)
48 h, R. oryzae pyr17 pyrG−/−, 48 h, read-out: MIC
  MIC: 0.78 µg/mL (≈ 2.09 µM)
48 h, R. orzae type II 10206, 48 h, read-out: MFC
  MFC: 3.12 µg/mL (≈ 8.36 µM)
48 h, R. orzae type II 10206, 48 h, read-out: MIC
  MIC: 3.12 µg/mL (≈ 8.36 µM)
[1]
  MFC: 6.25 µg/mL (≈ 16.7 µM)
  MIC: 6.15 µg/mL (≈ 16.5 µM)
[2]
  MFC: 6.25 µg/mL (≈ 16.7 µM)
  MIC: 1.56 µg/mL (≈ 4.18 µM)
NRRL10206, 24 h, R. oryzae type I NRRL 10206, 24 h, read-out: MFC
  MFC: 3.12 µg/mL (≈ 8.36 µM)
NRRL10206, 24 h, R. oryzae type I NRRL 10206, 24 h, read-out: MIC
  MIC: 3.12 µg/mL (≈ 8.36 µM)
NRRL10206, 48 h, R. oryzae type I NRRL 10206, 48 h, read-out: MFC
  MFC: 3.12 µg/mL (≈ 8.36 µM)
NRRL10206, 48 h, R. oryzae type I NRRL 10206, 48 h, read-out: MIC
  MIC: 3.12 µg/mL (≈ 8.36 µM)
NRRL11823, 24 h, R. oryzae type I NRRL11823, 24 h, read-out: MFC
  MFC: 3.12 µg/mL (≈ 8.36 µM)
NRRL11823, 24 h, R. oryzae type I NRRL11823, 24 h, read-out: MIC
  MIC: 3.12 µg/mL (≈ 8.36 µM)
NRRL11823, 48 h, R. oryzae type I NRRL11823, 48 h, read-out: MFC
  MFC: 6.25 µg/mL (≈ 16.7 µM)
NRRL11823, 48 h, R. oryzae type I NRRL11823, 48 h, read-out: MIC
  MIC: 6.25 µg/mL (≈ 16.7 µM)
NRRL13142, 24 h, R. oryzae type I NRRL13142, 24 h, read-out: MFC
  MFC: 6.25 µg/mL (≈ 16.7 µM)
NRRL13142, 24 h, R. oryzae type I NRRL13142, 24 h, read-out: MIC
  MIC: 6.25 µg/mL (≈ 16.7 µM)
NRRL13142, 48 h, R. oryzae type I NRRL13142, 48 h, read-out: MFC
  MFC: 3.12 µg/mL (≈ 8.36 µM)
NRRL13142, 48 h, R. oryzae type I NRRL13142, 48 h, read-out: MIC
  MIC: 3.12 µg/mL (≈ 8.36 µM)
NRRL13440, 24 h, R. oryzae type 1 NRRL13440, 24 h, read-out: MFC
  MFC: 12.5 µg/mL (≈ 33.5 µM)
NRRL13440, 24 h, R. oryzae type 1 NRRL13440, 24 h, read-out: MIC
  MIC: 1.56 µg/mL (≈ 4.18 µM)
NRRL13440, 48 h, R. oryzae type 1 NRRL13440, 48 h, read-out: MFC
  MFC: 12.5 µg/mL (≈ 33.5 µM)
NRRL13440, 48 h, R. oryzae type 1 NRRL13440, 48 h, read-out: MIC
  MIC: 1.56 µg/mL (≈ 4.18 µM)
NRRL13533, 24 h, R. oryzae type I NRRL13533, 24 h, read-out: MFC
  MFC: 6.25 µg/mL (≈ 16.7 µM)
NRRL13533, 24 h, R. oryzae type I NRRL13533, 24 h, read-out: MIC
  MIC: 1.56 µg/mL (≈ 4.18 µM)
NRRL13533, 48 h, R. oryzae type I NRRL13533, 48 h, read-out: MFC
  MFC: 6.25 µg/mL (≈ 16.7 µM)
NRRL13533, 48 h, R. oryzae type I NRRL13533, 48 h, read-out: MIC
  MIC: 1.56 µg/mL (≈ 4.18 µM)
NRRL18148, 24 h, R. oryzae type II NRRL 18148, 24 h, read-out: MFC
  MFC: 0.78 µg/mL (≈ 2.09 µM)
NRRL18148, 24 h, R. oryzae type II NRRL 18148, 24 h, read-out: MIC
  MIC: 0.78 µg/mL (≈ 2.09 µM)
NRRL18148, 48 h, R. oryzae type II NRRL 18148, 48 h, read-out: MFC
  MFC: 0.78 µg/mL (≈ 2.09 µM)
NRRL18148, 48 h, R. oryzae type II NRRL 18148, 48 h, read-out: MIC
  MIC: 0.78 µg/mL (≈ 2.09 µM)
NRRL21251, 24 h, R. oryzae type I NRRL 21251, 24 h, read-out: MFC
  MFC: 6.25 µg/mL (≈ 16.7 µM)
NRRL21251, 24 h, R. oryzae type I NRRL 21251, 24 h, read-out: MIC
  MIC: 3.12 µg/mL (≈ 8.36 µM)
NRRL21251, 48 h, R. oryzae type I NRRL 21251, 48 h, read-out: MFC
  MFC: 6.25 µg/mL (≈ 16.7 µM)
NRRL21251, 48 h, R. oryzae type I NRRL 21251, 48 h, read-out: MIC
  MIC: 6.25 µg/mL (≈ 16.7 µM)
NRRL21396, 24 h, R. oryzae type I NRRL21396, 24 h, read-out: MFC
  MFC: 12.5 µg/mL (≈ 33.5 µM)
NRRL21396, 24 h, R. oryzae type I NRRL21396, 24 h, read-out: MIC
  MIC: 12.5 µg/mL (≈ 33.5 µM)
NRRL21396, 48 h, R. oryzae type I NRRL21396, 48 h, read-out: MFC
  MFC: 6.25 µg/mL (≈ 16.7 µM)
NRRL21396, 48 h, R. oryzae type I NRRL21396, 48 h, read-out: MIC
  MIC: 1.56 µg/mL (≈ 4.18 µM)
[3]
  MFC: 1.56 µg/mL (≈ 4.18 µM)
  MIC: 1.56 µg/mL (≈ 4.18 µM)
NRRL21446, 24 h, R. oryzae type II NRRL 21446, 24 h, read-out: MFC
  MFC: 12.5 µg/mL (≈ 33.5 µM)
NRRL21446, 24 h, R. oryzae type II NRRL 21446, 24 h, read-out: MIC
  MIC: 6.25 µg/mL (≈ 16.7 µM)
NRRL21446, 48 h, R. oryzae type II NRRL 21446, 48 h, read-out: MFC
  MFC: 6.25 µg/mL (≈ 16.7 µM)
NRRL21446, 48 h, R. oryzae type II NRRL 21446, 48 h, read-out: MIC
  MIC: 6.25 µg/mL (≈ 16.7 µM)
NRRL21447, 24 h, R. oryzae type II NRRL 21447, 24 h, read-out: MFC
  MFC: 12.5 µg/mL (≈ 33.5 µM)
NRRL21447, 24 h, R. oryzae type II NRRL 21447, 24 h, read-out: MIC
  MIC: 6.25 µg/mL (≈ 16.7 µM)
NRRL21447, 48 h, R. oryzae type II NRRL 21447, 48 h, read-out: MFC
  MFC: 6.25 µg/mL (≈ 16.7 µM)
NRRL21447, 48 h, R. oryzae type II NRRL 21447, 48 h, read-out: MIC
  MIC: 6.25 µg/mL (≈ 16.7 µM)
NRRL21477, 24 h, R. oryzae type II NRRL 21477, 24 h, read-out: MFC
  MFC: 1.56 µg/mL (≈ 4.18 µM)
NRRL21477, 24 h, R. oryzae type II NRRL 21477, 24 h, read-out: MIC
  MIC: 1.56 µg/mL (≈ 4.18 µM)
NRRL21477, 48 h, R. oryzae type II NRRL 21477, 48 h, read-out: MFC
  MFC: 1.56 µg/mL (≈ 4.18 µM)
NRRL21477, 48 h, R. oryzae type II NRRL 21477, 48 h, read-out: MIC
  MIC: 1.56 µg/mL (≈ 4.18 µM)
NRRL21628, 24 h, R. oryzae type II NRRL 21628, 24 h, read-out: MFC
  MFC: 0.78 µg/mL (≈ 2.09 µM)
NRRL21628, 24 h, R. oryzae type II NRRL 21628, 24 h, read-out: MIC
  MIC: 0.78 µg/mL (≈ 2.09 µM)
NRRL21628, 48 h, R. oryzae type II NRRL 21628, 48 h, read-out: MFC
  MFC: 0.78 µg/mL (≈ 2.09 µM)
NRRL21628, 48 h, R. oryzae type II NRRL 21628, 48 h, read-out: MIC
  MIC: 0.78 µg/mL (≈ 2.09 µM)
NRRL21789, 24 h, R. oryzae type II NRRL 21789, 24 h, read-out: MFC
  MFC: 0.39 µg/mL (≈ 1.04 µM)
NRRL21789, 24 h, R. oryzae type II NRRL 21789, 24 h, read-out: MIC
  MIC: 0.39 µg/mL (≈ 1.04 µM)
NRRL21789, 48 h, R. oryzae type II NRRL 21789, 48 h, read-out: MFC
  MFC: 0.39 µg/mL (≈ 1.04 µM)
NRRL21789, 48 h, R. oryzae type II NRRL 21789, 48 h, read-out: MIC
  MIC: 0.39 µg/mL (≈ 1.04 µM)
24 h
  MIC90: 12.5 µg/mL (≈ 33.5 µM)
48 h
  MIC90: 6.25 µg/mL (≈ 16.7 µM)
